# Experimental data taken from patent publication US20230049231A1 (priority 2019, published 2023).
# Target: T1, Kv1.3 potassium channel (Homo sapiens, UniProt P22001)
# T1 construct: expressed in transfected cells
# Experiment: Kv1.3 potassium channel blocker activity, automated whole-cell patch clamp (Patchliner)
# Assay type: cell-based
# Conditions: CHO-K1 cells stably expressing Kv1.3; 100 ms pulses from -90 mV to +40 mV, 0.1 Hz
# Protocol: This assay is used to evaluate the disclosed compounds' activities as Kv1.3 potassium channel blockers.
# CHO-K1 cells stably expressing Kv1.3 were grown in DMEM containing 10% heat-inactivated FBS, 1 mM sodium pyruvate, 2 mM L-glutamine and G418 (500 μg/ml). Cells were grown in culture flasks at 37° C. in a 5% CO2-humidified incubator.
# The cells were bathed in an extracellular solution containing 140 mM NaCl, 4 mM KCl, 2 mM CaCl2), 1 mM MgCl2, 5 mM glucose, and 10 mM HEPES; pH adjusted to 7.4 with NaOH; 295-305 mOsm. The internal solution contained 50 mM KCl, 10 mM NaCl, 60 mM KF, 20 mM EGTA, and 10 mM HEPES; pH adjusted to 7.2 with KOH; 285 mOsm. All compounds were dissolved in DMSO at 30 mM. Compound stock solutions were freshly diluted with external solution to concentrations of 30 nM, 100 nM, 300 nM, 1 μM, 3 μM, 10 μM, 30 μM and 100 μM. The highest content of DMSO (0.3%) was present in 100 μM.
# The currents were evoked by applying 100 ms depolarizing pulses from −90 mV (holding potential) to +40 mV were applied with 0.1 Hz frequency. Control (compound-free) and compound pulse trains for each compound concentration applied contained 20 pulses.
# 10-second breaks were used between pulse trains (see Table 2 below).
# Whole-cell current recordings and compound application were enabled by means of an automated patch clamp platform Patchliner (Nanion Technologies GmbH). EPC 10 patch clamp amplifier (HEKA Elektronik Dr. Schulze GmbH) along with Patchmaster software (HEKA Elektronik Dr. Schulze GmbH) was used for data acquisition. Data were sampled at 10 kHz without filtering. Passive leak currents were subtracted online using a P/4 procedure (HEKA Elektronik Dr. Schulze GmbH). Increasing compound concentrations were applied consecutively to the same cell without washouts in between. Total compound incubation time before the next pulse train was not longer than 10 seconds. Peak current inhibition was observed during compound equilibration.
# AUC and peak values were obtained with Patchmaster (HEKA Elektronik Dr. Schulze GmbH). To determine IC50, the last single pulse in the pulse train corresponding to a given compound concentration was used. Obtained AUC and peak values in the presence of compound were normalized to control values in the absence of compound. Using Origin (OridinLab), IC50 was derived from data fit to Hill equation: Icompound/Icontrol=(100−A)/(1+([compound]/IC50)nH)+A, where IC50 value is the concentration at which current inhibition is half-maximal, [compound] is the applied compound concentration, A is the fraction of current that is not blocked and nH is the Hill coefficient.
# T1 sequence (P22001 whole entry): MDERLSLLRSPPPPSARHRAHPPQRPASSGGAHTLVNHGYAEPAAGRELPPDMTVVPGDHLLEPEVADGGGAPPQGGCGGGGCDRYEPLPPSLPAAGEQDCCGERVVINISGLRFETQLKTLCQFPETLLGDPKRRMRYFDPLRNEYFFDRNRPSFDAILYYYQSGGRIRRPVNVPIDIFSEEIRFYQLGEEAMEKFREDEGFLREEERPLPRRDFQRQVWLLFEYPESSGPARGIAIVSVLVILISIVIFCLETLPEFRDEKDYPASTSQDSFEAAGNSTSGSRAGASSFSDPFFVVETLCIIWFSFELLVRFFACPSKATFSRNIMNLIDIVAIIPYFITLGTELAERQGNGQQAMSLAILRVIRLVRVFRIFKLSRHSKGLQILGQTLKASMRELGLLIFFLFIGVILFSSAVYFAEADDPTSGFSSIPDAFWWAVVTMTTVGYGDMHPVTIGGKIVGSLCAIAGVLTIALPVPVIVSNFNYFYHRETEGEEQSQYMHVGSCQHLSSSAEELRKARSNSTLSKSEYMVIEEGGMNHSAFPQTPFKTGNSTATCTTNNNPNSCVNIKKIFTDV
row,Compound,IC50 [µM]
1,"O=C(CCO)N1CC(=O)N2CC[C@H](c3c(O)ccc(Cl)c3Cl)C[C@@H]2C1 [Compound 58, (8S,9aR)-8-(2,3-dichloro-6-hydroxyphenyl)-2-(3-hydroxy-propanoyl)octahydro-4H-pyrido[1,2-a]pyrazin-4-one]",< 1
2,"O=C(CO)N1CC(=O)N2CC[C@H](c3c(O)ccc(Cl)c3Cl)C[C@@H]2C1 [Compound 48, (8S,9aR)-8-(2,3-dichloro-6-hydroxyphenyl)-2-(2-hydroxyacetyl)-hexahydro-1H-pyrido[1,2-a]pyrazin-4-one]",< 1
3,"C[C@@H](CO)C(=O)N1CC(=O)N2CC[C@H](c3c(O)ccc(Cl)c3Cl)C[C@@H]2C1 [Compound 3, (8S,9aR)-8-(2,3-dichloro-6-hydroxyphenyl)-2-((S)-3-hydroxy-2-methylpropanoyl)octahydro-4H-pyrido[1,2-a]pyrazin-4-one]",< 1

# Next, values leading:
row,IC50 [µM],Compound
1,< 1,O=C1CNC[C@H]2C[C@@H](c3c(O)ccc(Cl)c3Cl)CCN12 [Compound 39]
2,< 1,"C[C@H](CO)C(=O)N1CC(=O)N2CC[C@H](c3c(O)ccc(Cl)c3Cl)C[C@@H]2C1 [Compound 20, (8S,9aR)-8-(2,3-dichloro-6-hydroxyphenyl)-2-((R)-3-hydroxy-2-methylpropanoyl)octahydro-4H-pyrido[1,2-a]pyrazin-4-one]"
3,< 1,"O=C1[C@@H](CO)NC[C@H]2C[C@@H](c3c(O)ccc(Cl)c3Cl)CCN12 [Compound 36, (3R,8S,9aR)-8-(2,3-dichloro-6-hydroxyphenyl)-3-(hydroxymethyl)-octahydropyrido[1,2-a]pyrazin-4-one]"

# Same assay, conditions: Kv1.3 potassium channel, whole-cell patch clamp
row,Compound,IC50 [µM]
1,"O=C1CCCN1CC1OC[C@@H]2C[C@H](c3c(O)ccc(Cl)c3Cl)CCN2C1=O (stereo partly drawn) [Compound 184, 1-[[(8R,9aS)-8-(2,3-dichloro-6-hydroxyphenyl)-4-oxo-hexahydro-1H-pyrido[2,1-c][1,4]oxazin-3-yl]methyl]pyrrolidin-2-one]",< 10
2,"O=C1CC[C@@H]2C[C@H](c3c(O)ccc(Cl)c3Cl)CN12 [Compound 244, (6R,7aR)-6-(2,3-dichloro-6-hydroxyphenyl)-hexahydropyrrolizin-3-one]",< 1
3,"O=C1N(CCO)C[C@@H]2C[C@H](c3c(O)ccc(Cl)c3Cl)CN12 [Compound 290, (6R,7aS)-6-(2,3-dichloro-6-hydroxyphenyl)-2-(2-hydroxyethyl)hexahydro-3H-pyrrolo[1,2-c]imidazol-3-one]",< 10
4,"O=C1[C@@H](O)C[C@@H]2C[C@H](c3c(O)ccc(Cl)c3Cl)CN12 (single isomer, unassigned) [Compound 245]",< 1

# Now from value to compound:
row,IC50 [µM],Compound
1,< 1,"O=C1[C@H](O)C[C@@H]2C[C@H](c3c(O)ccc(Cl)c3Cl)CN12 (single isomer, unassigned) [Compound 246]"
2,< 1,"C[C@@H]1[C@@H]2C[C@H](c3c(O)ccc(Cl)c3Cl)CN2C(=O)CN1C(=O)CO (single isomer, unassigned; isomer 1) [Compound 87]"
3,< 10,"C[C@@H]1[C@@H]2C[C@H](c3c(O)ccc(Cl)c3Cl)CCN2C(=O)CN1C(=O)CO (single isomer, unassigned; isomer 1) [Compound 83]"
4,< 1,"Nc1cnc(N2CC(=O)N3C[C@@H](c4c(O)ccc(Cl)c4Cl)C[C@H]3C2)nc1 [Compound 170, (7R,8aS)-2-(5-aminopyrimidin-2-yl)-7-(2,3-dichloro-6-hydroxyphenyl)-hexahydropyrrolo[1,2-a]pyrazin-4-one]"
5,< 1,"O=C1CN(c2ccc(CO)cn2)C[C@@H]2C[C@H](c3c(O)ccc(Cl)c3Cl)CN12 [Compound 168, (7R,8aS)-7-(2,3-dichloro-6-hydroxyphenyl)-2-[5-(hydroxymethyl)pyridin-2-yl]-hexahydropyrrolo[1,2-a]pyrazin-4-one]"
6,< 1,"CC(C)(O)[C@H]1OC(=O)N2C[C@@H](c3c(O)ccc(Cl)c3Cl)C[C@@H]12 (single isomer, unassigned) [Compound 255]"
